Data: patent US11026972B2, “Methods for generating macrophages with enhanced cancer phagocytosis” (Georgia State University Research Foundation, Inc., priority 2016, dated 2021)

What was measured:
PEMs = assay: Cell signaling inhibitors on LPS/cytokine- or PMA-induced PEM phagocytic activation toward RBCs; assay type: cell-based, mouse; settings: for LPS and cytokine-induced phagocytic activation: PEMs treated with LPS and cytokines in the presence of inhibitors
Protocol: FIGS. 5A-5H include data related to our experiments on the role of Syk in phagocytic activation. […] PEMs were treated with LPS and cytokines in the presence of various inhibitors. After washing, inhibitor-free macrophages were tested for phagocytosis toward RBCs. […] PEMs treated with LPS and activating cytokines, or together with IL-10, were tested for total Syk and phosphorylated Syk (Syk^pY, specific at Y519/520). FIG. 5D describes PMA-induced macrophages phagocytosis toward RBCs. WT and SIRPα^−/− PEMs were treated with PMA (37° C., 30 min) before testing phagocytosis toward RBCs. FIG. 5E is a schematic depiction of PKC-Syk-mediated macrophage phagocytic activation toward self. […] Left: Inhibition of Syk by piceatannol and R406 prevented PMA-induced phagocytic activation. […] Error bars are ±SEM. ***P<0.001 vs. the respective controls. […] LPS-treated WT PEMs were further briefly treated with pervanadate before testing for phagocytosis toward RBCs. Error bars are ±SEM. ***P<0.001 vs. the respective controls. […] Data presented in each panel represent at least three independent experiments with n≥4, if applicable.
Ex vivo macrophage phagocytosis: Mouse spleens were harvested and minced in cold HBSS followed by passing through nylon meshes. The spleen cells in suspensions were collected by centrifugation followed by washing. After lysis of RBC, splenocytes were plated in cell culture dishes in DMEM with 10% FBS and cultured for 2 h followed by removal of non-adherent cells. The adherent cells, ˜70% being macrophages as determined by anti-F4/80 staining, were tested for phagocytosis. For phagocytosis of RBC or other tissue cells, targeted cells were labeled with CFSE prior to addition into the macrophage-containing wells. Macrophages and target cells, at a ratio of 1:5-10 for RBC or 1:1-2 for other cells, were co-incubated for 30 min at 37° C. followed by gently washing. Macrophage phagocytosis of target cells was then analyzed by fluorescence microscopy and/or by FACS. […] Alternatively, the freshly isolated splenocytes in suspension were incubated with CFSE-labeled RBC and other phagocytic targets for 30 min at 37° C. Macrophage phagocytosis was then determined by FACS after labeling macrophages with anti-F4/80. To test phagocytosis of apoptotic cells, B16 cells were irradiated by UV for 150 seconds at 50 J/m^2 strength. Apoptosis was analyzed at 2, 4, 6, 8 and 18 h post UV irradiation by labeling of the cells with anti-phosphatidylserine (PS) antibody (data not shown) or FITC-conjugated annexin V (data not shown). Cells that were confirmed to be apoptotic were trypsinized, labeled with CFSE, and then co-incubated with macrophages for 30 min at 37° C. After gentle washing, phagocytosis was analyzed by fluorescence microscopy and/or FACS. To test phagocytosis of bacteria and the fungal product zymosan, AlexaFluor-conjugated E.coli strain […] (2 μl suspension, ˜2 μg) or zymosan bioparticles (1 μl suspension, ˜2 μg) (both from Invitrogen) were incubated with macrophages for 30 min followed by washing and analyses. Similar procedures were performed to test phagocytosis of macrophages from various sources. To obtain peritoneal macrophages, peritonea of mice were lavaged by sterile PBS followed by centrifugation to collect cells. Cells suspended in DMEM with 10% FBS were then plated in cell culture dishes and incubated for 2 h at 37° C. followed by removal of non-adherent cells. To produce bone marrow-derived macrophages, freshly isolated bone marrow cells were culture in macrophage colony-stimulating factor (MCSF, ˜10 ng/ml)-containing MEM with 10% FBS for five-six days and macrophage differentiation was confirmed by anti-F4/80 staining.

[1] = tested on: splenic macrophages, PEMs and BMDMs; assay: Ex vivo macrophage phagocytosis toward RBCs and other self-cells after activation; assay type: cell-based, mouse; settings: for ability to induce macrophage phagocytosis toward self: PEM, lack of the CD47-SIRPα-mediated inhibition
Protocol: FIGS. 3A-3H include data related to our experiments assaying macrophage phagocytosis ex vivo. FIGS. 3A and 3B show macrophage phagocytosis of RBCs. Freshly isolated splenic macrophages (MØ) and peritoneal macrophages (PEM) and in vitro-derived BMDM (bone marrow-derived macrophages) were tested for phagocytosis toward CFSE-labeled Cd47^+ or Cd47^− RBCs. […] FIGS. 3F and 3G illustrate LPS and IL-17-activated PEM phagocytosis toward splenocytes (FIG. 3F), B16, and EL4 (FIG. 3G). Error bars are ±SEM. **P<0.01, ***P<0.001 vs. no treatment controls. […] PEM lavaged without (ctl.) or with Brewer thioglycollate (3%, i.p.) elicitation was tested. Error bars are ±SEM. ***P<0.001 vs. control PEM. Data presented in each panel represent at least three independent experiments with n≥4, if applicable.
FIGS. 4A-4E include data related to our experiments on macrophage phagocytic plasticity. FIG. 4A is a panel of illustrative line graphs showing that IL-10 inhibits macrophage phagocytosis toward “self.” PEMs were treated with LPS and activating cytokines along with various concentrations of IL-10 before testing their ability to phagocytose RBCs. FIG. 4B illustrates the phagocytic plasticity of WT red pulp macrophages. […] Treatments of cultured macrophages with LPS and IL-17 re-elicited their phagocytosis toward RBCs. […] Error bars are ±SEM. ***P<0.001 vs. freshly isolated splenic macrophages. FIG. 4D includes microscopic images of RBC phagocytosis by LPS- and IL-17-treated splenic macrophages. […] WT PEMs treated with LPS or IL-17 were further treated with Cd47^+ RBCs or Cd47-AP (10 min, 37° C.) followed by cell lysis, SIRPα immunoprecipitation, and WB detection of SIRPα phosphorylation (SIRPα^pY) and SHP-1 association. Data presented in each panel represent at least three independent experiments with n≥4, if applicable.
Ex vivo macrophage phagocytosis: Mouse spleens were harvested and minced in cold HBSS followed by passing through nylon meshes. The spleen cells in suspensions were collected by centrifugation followed by washing. After lysis of RBC, splenocytes were plated in cell culture dishes in DMEM with 10% FBS and cultured for 2 h followed by removal of non-adherent cells. The adherent cells, ˜70% being macrophages as determined by anti-F4/80 staining, were tested for phagocytosis. For phagocytosis of RBC or other tissue cells, targeted cells were labeled with CFSE prior to addition into the macrophage-containing wells. Macrophages and target cells, at a ratio of 1:5-10 for RBC or 1:1-2 for other cells, were co-incubated for 30 min at 37° C. followed by gently washing. Macrophage phagocytosis of target cells was then analyzed by fluorescence microscopy and/or by FACS. To better recognize macrophages, macrophages in wells were labeled with an anti-F4/80 or an anti-CD11b antibody. Alternatively, the freshly isolated splenocytes in suspension were incubated with CFSE-labeled RBC and other phagocytic targets for 30 min at 37° C. Macrophage phagocytosis was then determined by FACS after labeling macrophages with anti-F4/80. To test phagocytosis of apoptotic cells, B16 cells were irradiated by UV for 150 seconds at 50 J/m^2 strength. Apoptosis was analyzed at 2, 4, 6, 8 and 18 h post UV irradiation by labeling of the cells with anti-phosphatidylserine (PS) antibody (data not shown) or FITC-conjugated annexin V (data not shown). Cells that were confirmed to be apoptotic were trypsinized, labeled with CFSE, and then co-incubated with macrophages for 30 min at 37° C. After gentle washing, phagocytosis was analyzed by fluorescence microscopy and/or FACS. To test phagocytosis of bacteria and the fungal product zymosan, AlexaFluor-conjugated E.coli strain […] (2 μl suspension, ˜2 μg) or zymosan bioparticles (1 μl suspension, ˜2 μg) (both from Invitrogen) were incubated with macrophages for 30 min followed by washing and analyses. Similar procedures were performed to test phagocytosis of macrophages from various sources. […]

For CC(C)(C)n1nc(-c2ccc(Cl)cc2)c2c(N)ncnc21 [PP2], the “LPS and cytokine-induced phagocytic activation” value (PEMs) was “diminished phagocytic activation induced by certain, but not all stimuli”.

For O=C(O)CN(CCN(CC(=O)O)CC(=O)O)CC(=O)O [EDTA], the macrophage phagocytic activation (PEMs; presence of EDTA) was “hindered macrophage phagocytic activation”.

With C[S+]([O-])c1ccc(-c2nc(-c3ccncc3)c(-c3ccc(F)cc3)[nH]2)cc1 (centres unmarked) [SB203580] the “LPS and cytokine-induced phagocytic activation” value (PEMs) was “diminished phagocytic activation induced by certain, but not all stimuli”.

COc1ccc2c(c1)CC[C@@H]1[C@@H]2CC[C@]2(C)[C@@H](NCCCCCCN3C(=O)C=CC3=O)CC[C@@H]12 [U73122] was tested, and the “LPS and cytokine-induced phagocytic activation” value (PEMs) was “diminished phagocytic activation induced by certain, but not all stimuli”.

For JAK inhibitor I, the “LPS and cytokine-induced phagocytic activation” value (PEMs) was “diminished phagocytic activation induced by certain, but not all stimuli”.

In the case of Cc1ccc(NCCCc2ccccc2)c(N)c1 [JSH-23], the “LPS and cytokine-induced phagocytic activation” value (PEMs) is reported as “diminished phagocytic activation induced by certain, but not all stimuli”.

For COc1cc(Nc2ncc(F)c(Nc3ccc4c(n3)NC(=O)C(C)(C)O4)n2)cc(OC)c1OC [R406], the PEM activation (PEMs; 400 nM, all stimuli) was “nearly completely eliminated PEM activation induced by all stimuli”, the “PMA-induced PEM phagocytosis” value (PEMs; Syk inhibition) was “eliminated the PMA-induced PEM phagocytosis” and the “LPS-induced activation of PEM phagocytosis toward RBC” value (PEMs; dose dependence) was “dose-dependently inhibited”.

tumor necrosis factor-alpha [TNFα] was tested, and the “ability to induce macrophage phagocytosis toward self” value (shortened to “ability”) [1] was “have the ability to induce macrophage phagocytosis toward self”.

COc1cccc(-c2cc(=O)c3ccccc3o2)c1N [PD98059] was tested, and the “LPS and cytokine-induced phagocytic activation” value (PEMs) was “diminished phagocytic activation induced by certain, but not all stimuli”.

In the case of C/C(O)=C(\C#N)C(=O)Nc1cc(Br)ccc1Br [LFM-13], the “LPS and cytokine-induced phagocytic activation” value (PEMs) is reported as “diminished phagocytic activation induced by certain, but not all stimuli”.

With COc1cc2ncnc(Nc3ccc(O)cc3)c2cc1OC [JAK3 inhibitor I] the “LPS and cytokine-induced phagocytic activation” value (PEMs) was “diminished phagocytic activation induced by certain, but not all stimuli”.

For Cc1ccc(-c2nn(C(C)(C)C)c3ncnc(N)c23)cc1 [PP1], the “LPS and cytokine-induced phagocytic activation” value (PEMs) was “diminished phagocytic activation induced by certain, but not all stimuli”.

With pervanadate the Cd47-dependent phagocytic recognition ([1]; LPS-treated WT PEMs briefly treated with pervanadate) was “eliminates Cd47-dependent phagocytic recognition”.

B1: IFNγ: recombinant murine cytokine, PeproTech (protein, UniProt P01580 23-155, looked up)
Interferon gamma: HGTVIESLESLNNYFNSSGIDVEEKSLFLDIWRNWQKDGDMKILQSQIISFYLRLFEVLKDNQAISNNISVIESHLITTFFSNSKAKKDAFMSIAKFEVNNPQVQRQAFNELIRVVHQLLPESSLRKRKRSRC
For B1, the “ability” value [1] was “not”.

B2: IL-1β: recombinant murine cytokine, PeproTech (protein, UniProt P10749 118-269, looked up)
Interleukin-1 beta: VPIRQLHYRLRDEQQKSLVLSDPYELKALHLNGQNINQQVIFSMSFVQGEPSNDKIPVALGLKGKNLYLSCVMKDGTPTLQLESVDPKQYPKKKMEKRFVFNKIEVKSKVEFESAEFPNWYISTSQAEHKPVFLGNNSGQDIIDFTMESVSS
B2 was tested, and the “ability” value [1] was “have the ability to induce macrophage phagocytosis toward self”.
